Reference: PubChem BioAssay (NCI)
“And” between values parts separate entries of the source, which are not always exact repeats. Equal entries are not always repeated.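 96-well plates; 48 h exposure; 5 concentrations. Endpoints by linear interpolation between flanking doses. Not reached: highest tested concentration assigned. GI50: concentration for 50% inhibition of growth. TGI marks complete inhibition of growth.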

Assays:
Assay in all cases: growth of human tumour cells (NCI), 48 h
CAKI-1 renal = system: CAKI-1 renal
HOP-62 NSCLC = system: HOP-62 NSCLC
IGROV1 ovarian = system: IGROV1 ovarian
K-562 leukemia = system: K-562 leukemia
KM12 colon = system: KM12 colon
OVCAR-3 ovarian = system: OVCAR-3 ovarian
SK-MEL-2 melanoma = system: SK-MEL-2 melanoma
SK-OV-3 ovarian = system: SK-OV-3 ovarian
SW-620 colon = system: SW-620 colon
T-47D breast = system: T-47D breast

Structure (SMILES) | GI50 (CAKI-1 renal) | TGI (CAKI-1 renal) | GI50 (HOP-62 NSCLC) | TGI (HOP-62 NSCLC) | GI50 (IGROV1 ovarian) | TGI (IGROV1 ovarian) | GI50 (K-562 leukemia) | TGI (K-562 leukemia) | GI50 (KM12 colon) | TGI (KM12 colon) | GI50 (OVCAR-3 ovarian) | TGI (OVCAR-3 ovarian) | GI50 (SK-MEL-2 melanoma) | TGI (SK-MEL-2 melanoma) | GI50 (SK-OV-3 ovarian) | TGI (SK-OV-3 ovarian) | GI50 (SW-620 colon) | TGI (SW-620 colon) | GI50 (T-47D breast) | TGI (T-47D breast)
CC/C=C\C/C=C\C[C@H](O)C/C=C1/C(=O)C=C[C@@H]1C/C=C\CCCC(=O)O | 6.56 µM | 21.4 µM | 2.77 µM | 7.4 µM | 6.78 µM | 25.9 µM | 3.17 µM | > 100 µM | 3.06 µM | 11.5 µM | 3.23 µM | 12.7 µM | 3.33 µM | 13.2 µM | 16 µM | 34.7 µM | 4.46 µM | 70.6 µM | 3.88 µM | 20.1 µM
O=C(Nc1ccc(CN2CCOCC2)cc1)c1[nH]ncc1Nc1ncnc2sccc12 | 0.477 µM | > 100 µM | 0.669 µM | 41.6 µM | 0.578 µM | 23.6 µM | 0.402 µM | > 100 µM | 0.311 µM | 10.1 µM | 0.29 µM | 2.81 µM | 0.36 µM | 2.14 µM | 0.103 µM | > 100 µM | 0.418 µM | > 100 µM | 0.739 µM | > 100 µM
C=CC(C)(O)/C=C/C=C(\C)C(CC1OC1(C)C)OC(=O)/C(C)=C\C (stereo not drawn) |  | > 100 µM |  | > 100 µM |  | > 100 µM |  | > 100 µM |  | > 100 µM |  | > 100 µM |  | > 100 µM |  | > 100 µM |  | > 100 µM |  | > 100 µM
COc1cc2nccc(Oc3ccc(NC(=O)C4(C(=O)Nc5ccc(F)cc5)CC4)cc3)c2cc1Oc1ccc(N)cn1 | 1.85 µM | 5.48 µM | 2.83 µM | 84.3 µM | 1.36 µM | 3.94 µM | 0.9 µM | > 100 µM | 0.0442 µM | 3.1 µM | 3.68 µM | > 100 µM | 2.5 µM | 6.52 µM | 3.52 µM | > 100 µM | 2.57 µM | > 100 µM | 1.91 µM | 9.91 µM
COc1ccc2c(c1)C(=O)C(=O)c1cc(O)c(OC)c(OC)c1-2 | 1.77 µM | 1.67 µM and 3.15 µM | 1.15 µM | 1.72 µM and 2.58 µM | 1.71 µM | 1.56 µM and 3.08 µM |  | 3.01 µM |  | 3.28 µM | 1.65 µM | 3.63 µM and 3.11 µM | 1.95 µM | 1.62 µM and 3.42 µM | 1.79 µM | 7.27 µM and 3.17 µM | 2.8 µM | 3.18 µM and 9.14 µM | 1.75 µM | 2.81 µM and 3.13 µM
O=C(CN1CCN(c2ccc(Cl)cc2)CC1)N1CCN(c2nnc(-c3ccc(Cl)cc3)c(-c3ccc(Cl)cc3)n2)CC1 | 52.6 µM | > 100 µM | 40.9 µM | > 100 µM | 35.1 µM | > 100 µM | > 100 µM | > 100 µM | 9.45 µM | > 100 µM | 48.3 µM | > 100 µM | 51.5 µM | > 100 µM | 33.9 µM | > 100 µM | > 100 µM | > 100 µM | 10.8 µM | > 100 µM
N#Cc1ccc(N2Cc3ccccc3OC3=C2C(=O)c2c(O)ccc(O)c2C3=O)cc1 | 0.0992 µM | 0.366 µM | 1.29 µM | 4.99 µM | 0.497 µM | 1.36 µM | 0.071 µM |  | 1.28 µM | 6.1 µM | 0.153 µM | 0.433 µM | 1.01 µM | 3.8 µM | 2.99 µM | 11.9 µM | 0.0906 µM | 0.306 µM | 0.175 µM | 0.487 µM
CN(N=O)C(=O)N[C@@H](C=O)[C@@H](O)[C@H](O)[C@H](O)CO | > 750 µM | 457 µM and > 750 µM | > 750 µM | > 750 µM | > 750 µM | > 750 µM | > 750 µM | 560 µM and > 750 µM | > 750 µM | > 750 µM |  | 670 µM | > 750 µM | > 750 µM | > 750 µM | 622 µM and > 750 µM | > 750 µM | 590 µM and > 750 µM |  | > 750 µM
C/C1=C/C2=CC(C)C[C@@H]2C(=O)[C@]2(C)C(=O)CC(C)(C)[C@H]2CC1=O (stereo partly drawn) |  | > 50 µM |  |  |  | > 50 µM |  | > 50 µM |  | > 50 µM |  | > 50 µM |  | > 50 µM |  | > 50 µM |  | > 50 µM |  | > 50 µM
O=C(Nc1ccc(Cl)cc1F)c1cc(I)ccc1O | 1.28 µM | 5.73 µM | 2.35 µM | 8.04 µM | 1.51 µM | 50.4 µM | 1.09 µM | > 100 µM | 2.15 µM | 4.98 µM | 1.66 µM | 16.1 µM | 0.836 µM | 4.25 µM | 0.132 µM | 1.24 µM | 2.44 µM | 13.6 µM | 1.44 µM | 6.3 µM
O=C(Nc1cccc(Oc2nnc(Cl)c3ccccc23)c1)Nc1ccc(Cl)c(C(F)(F)F)c1 | 0.832 µM | 6.5 µM | 1.98 µM | 5.75 µM | 1.04 µM | 5.85 µM | 0.63 µM | 4.27 µM | 0.701 µM | 2.97 µM | 0.773 µM | 4.46 µM | 0.698 µM | 3.24 µM | 2.66 µM | 6.7 µM | 1.92 µM | 4.9 µM | 0.384 µM | 2.24 µM
CN1CCN(c2ccc3nc(-c4c(N)c5c(F)cccc5[nH]c4=O)[nH]c3c2)CC1 | 0.213 µM and 0.282 µM and 0.387 µM | 1.57 µM and > 10 µM and 12.5 µM | 1.08 µM and 0.829 µM and 1.58 µM | 2.7 µM and > 3.73 µM and 8.18 µM | 0.325 µM and 0.272 µM and 0.302 µM | 4.94 µM and > 3.98 µM and 11.8 µM | 0.598 µM and 0.528 µM and 0.932 µM | 2.62 µM and 2.32 µM and 4.91 µM | 0.0357 µM and 0.0406 µM and 0.0407 µM | 2.07 µM and > 3.51 µM and 7.5 µM | 1.47 µM and 1.27 µM and 3.2 µM | 2.96 µM and > 8.27 µM and 8.9 µM | 0.419 µM and 0.4 µM and 0.936 µM | 5.41 µM and > 2.24 µM and 22.8 µM | 0.379 µM and 0.487 µM and 0.515 µM |  | 0.533 µM and 0.379 µM and 0.576 µM | 1.94 µM and 3.21 µM and 2.65 µM | 4.04 µM and 12 µM | 10.1 µM and > 6.23 µM and 31.9 µM
C=CC(C=O)C1(O)CCOC(=O)/C1=C\N (stereo not drawn) | > 100 µM | > 100 µM | > 100 µM | > 100 µM | > 100 µM | > 100 µM | > 100 µM | > 100 µM | > 100 µM | > 100 µM | > 100 µM | > 100 µM | > 100 µM | > 100 µM | > 100 µM | > 100 µM | > 100 µM | > 100 µM | > 100 µM | > 100 µM
